# Test results taken from patent US11013715B2, “Nanoemulsion hydrophobic substances” (Vertosa, Inc., priority 2018, dated 2021).
# Where two headings read alike, the source gives them in different places.
# Experiments:
# [1] = Emulsion droplet average size by Dynamic Light Scattering; assay type: physicochemical; conditions: named Span as co-surfactant; 1 g cannabinoid, 0.625 g olive oil, 3.75 g Tween 80, Span:Tween 80 1:6; 45 mL; 80% amplitude sonication until plateau; DLS
# Protocol: Droplet size change was monitored by DLS time wise.
# Sometimes, measuring concentrated nano-emulsion (>10 mg/g) by Dynamic Light Scattering could have misleading data. Since at higher concentration, the emulsion droplets pack close to each other and may generate unreal scattering pattern. […] While the nanosized droplets are a preferred embodiment of the instant application, larger sized droplets are contemplated as well. Sometimes, larger size emulsion is generated by design to achieve desirable effects.
# As is generally known in the art, droplet sizes and their distribution may affect the human feeling on flavor. On one side, nano-size can amplify or even alter the taste, something tastes plain at bulk may taste bitter or sour in nano-scale. On the other side, taste buds on tongue tend to have different time reactions to different sizes of particles. The smaller droplets can quickly absorb at the gap of the tasting buds, thus blocking the touching/feeling from bigger droplets. The droplet size can be well controlled by how much energy is put into the liquid system, which can be controlled either by amplitude % of the sonicator or by how long the liquid is being sonicated at certain amplitude %.
# The sonicator continuously calibrates itself to ensure consistent output. A commercially available sonicator may be used to make the compositions disclosed herein. The wattage of such a sonicator may vary from 250 W to about 800 W, and more preferably between about 350 W to about 650 W, and most preferably between 450 W to about 550 W. The output energy depends on the viscosity of the emulsion and also temperature. […] Processing amplitude are adjustable, and it is within a linear relation with intensity. And process time can also be adjustable, which will determine total input energy under certain intensity. Since each formula may need different amount of energy to get into nanosize, we usually monitor droplet size change with Dynamic Light Scattering over production time to determine when to stop the sonication.
# 1 g of cannabis and 5 g of the Formula 1 are added to a 100 ml beaker, and mechanically stirred under controlled heat (<60° C.), until it is well mixed. The cannabis oil may be a full plant extract or a high pure distillate. Water is added to the mixture, the amount of water is determined by the final targeting concentration. The mixture is kept stirring until a homogenous milky coarse emulsion is formed.
# [2] = cited from earlier work
# [3] = Span surfactants, Example 9 table
# [4] = Table 1, HLB=20*Mh/M, scale 0 to 20
Substance,Final Emulsion droplet average size (nm) [1],"HLB [2, 3]","HLB [2, 4]"
Span 80,387 nm,4.3,
Span 20,91 nm,,
Span 120,302 nm,4.7,
polyglyceryl-6 oleate,,,9
Span 85,876 nm,,
Span 40,245 nm,6.7,
Polyglyceryl-6 Stearate,,,9
Span 60,316 nm,4.7,
Span 83,560 nm,,
Tween 81,,,10
